The supplement of paper PMC11061612

How the values were obtained:
Experiment in all cases: combination Emax (second highest fraction inhibited in the dose matrix, 72 h); higher = more inhibition; extreme values may be limits of the assay
[1] = test system: SK-LMS-1 (Other Solid Carcinomas)
Outline: (§1)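 After 24 hours at 37°C and 5% CO2 in 1536-well plates, cells in DMEM/F12 or RPMI plus 10% FBS received two-drug dose matrices for 72 hours. Viability came from CellTiter-Glo 2.0 luminescence and was scaled as inhibition, anchored at 0 by vehicle wells and at 1 by blank wells. Combination Emax is taken as the second-highest inhibition in the matrix, and Bliss excess as the observed combination effect less EA + EB − EA·EB, with EA and EB the single-agent effects.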

[2] = test system: P31-FUJ (Acute Myeloid Leukemia)
Outline: as §1

[3] = test system: NCI-H1688 (Small Cell Lung Carcinoma)
Outline: as §1

[4] = test system: EFM-192A (Breast Carcinoma)
Outline: as §1

[5] = test system: KG-1 (Acute Myeloid Leukemia)
Outline: as §1

[6] = test system: RCC10RGB (Kidney Carcinoma)
Outline: as §1

[7] = test system: GDM-1 (Acute Myeloid Leukemia)
Outline: as §1

[8] = test system: HOP-92 (Non-Small Cell Lung Carcinoma)
Outline: as §1

[9] = test system: D-283MED (Other Solid Carcinomas)
Outline: as §1

[10] = test system: HCC-827 (Lung Adenocarcinoma)
Outline: as §1

[11] = test system: U-118-MG (Low Grade Glioma)
Outline: as §1

[12] = test system: HCC1143 (Breast Carcinoma)
Outline: as §1

SMILES	combination Emax [1]	combination Emax [2]	combination Emax [3]	combination Emax [4]	combination Emax [5]	combination Emax [6]	combination Emax [7]	combination Emax [8]	combination Emax [9]	combination Emax [10]	combination Emax [11]	combination Emax [12]
Cc1c2c(nn1C)CSCc1cc(n(C)n1)CSc1cc(c3ccccc3c1)OCCCc1c(C(=O)O)n(C)c3c-2c(Cl)ccc13 [AZD5991] + Cc1cc2ncnn2cc1Nc1ncc2c(n1)n(C1CCOCC1)c(=O)n2C [AZD7648] (first compound max 1 µM, 7x7, partner max 10 µM)	0.344	0.965	0.297	0.692	1	0.342	0.619	0.448	0.435	0.288	0.425	0.267
Cc1c2c(nn1C)CSCc1cc(n(C)n1)CSc1cc(c3ccccc3c1)OCCCc1c(C(=O)O)n(C)c3c-2c(Cl)ccc13 [AZD5991] + C[C@@H](Nc1cc(F)cc(F)c1)c1cc(C(=O)N(C)C)cc2c(=O)cc(N3CCOCC3)oc12 [AZD8186] (first compound max 1 µM, 7x7, partner max 3 µM)	0.453	0.959	0.339	0.703	1	0.557	0.767	0.587	0.342	0.288	0.45	0.342
CCN(CCO)CCCOc1ccc2c(Nc3cc(CC(=O)Nc4cccc(F)c4)[nH]n3)ncnc2c1 [AZD2811] + C[C@@H]1COCCN1C2=NC(=NC(=C2)C3(CC3)[S@](=N)(=O)C)C4=C5C=CNC5=NC=C4 [AZD6738] (first compound max 1 µM, 7x7, partner max 10 µM)	0.551	0.942	0.271	0.233	0.699	0.384	0.823	0.626	1	0.493	0.52	0.824
CCN(CCO)CCCOc1ccc2c(Nc3cc(CC(=O)Nc4cccc(F)c4)[nH]n3)ncnc2c1 [AZD2811] + O=C(c1cc(Cc2n[nH]c(=O)c3ccccc23)ccc1F)N1CCN(C(=O)C2CC2)CC1 [Olaparib] (first compound max 1 µM, 7x7, partner max 10 µM)	0.367	0.83	0.196	0.212	0.37	0.211	0.818	0.363	0.817	0.236	0.377	0.372
CN(CCO)CC[C@H](CSc1ccccc1)Nc1ccc(S(=O)(=O)NC(=O)c2ccc(N3CCC([C@@H](O)c4ccccc4-c4ccc(Cl)cc4)CC3)cc2)cc1S(=O)(=O)C(F)(F)F [AZD4320] + C[C@@H]1COCCN1C2=NC(=NC(=C2)C3(CC3)[S@](=N)(=O)C)C4=C5C=CNC5=NC=C4 [AZD6738] (first compound max 1 µM, 7x7, partner max 10 µM)	0.866	0.994	0.728	0.349	1	0.492	1	0.976	0.992	0.551	0.878	0.842
COc1cccc(OCCCN)c1-c1cc(Nc2cnc(C#N)cn2)n[nH]1 [Prexasertib] + O=C(c1cc(Cc2n[nH]c(=O)c3ccccc23)ccc1F)N1CCN(C(=O)C2CC2)CC1 [Olaparib] (first compound max 1 µM, 7x7, partner max 10 µM)	0.676	1	0.528	0.143	1	0.479	0.91	0.665	0.982	0.523	0.751	0.735
Cc1c2c(nn1C)CSCc1cc(n(C)n1)CSc1cc(c3ccccc3c1)OCCCc1c(C(=O)O)n(C)c3c-2c(Cl)ccc13 [AZD5991] + CC1(C)CCC(CN2CCN(c3ccc(C(=O)NS(=O)(=O)c4ccc(NCC5CCOCC5)c([N+](=O)[O-])c4)c(Oc4cnc5[nH]ccc5c4)c3)CC2)=C(c2ccc(Cl)cc2)C1 [Venetoclax] (first compound max 1 µM, 7x7, partner max 1 µM)	0.115	0.998	0.702	0.873	1	0.221	0.999	0.44	0.639	0.182	0.196	0.252
COc1cccc(OCCCN)c1-c1cc(Nc2cnc(C#N)cn2)n[nH]1 [Prexasertib] + CN(C)CCCOc1ccc(-c2ccc3ncc4c(c3c2)n(C2CCOCC2)c(=O)n4C)cn1 [AZD0156] (first compound max 1 µM, 7x7, partner max 1 µM)	0.612	0.998	0.568	0.233	0.903	0.484	0.913	0.704	0.99	0.552	0.723	0.912
Cc1cc2ncnn2cc1Nc1ncc2c(n1)n(C1CCOCC1)c(=O)n2C [AZD7648] + CCN(CCO)CCCOc1ccc2c(Nc3cc(CC(=O)Nc4cccc(F)c4)[nH]n3)ncnc2c1 [AZD2811] (first compound max 10 µM, 7x7, partner max 1 µM)	0.409	0.957	0.201	0.345	0.386	0.264	0.859	0.41	0.74	0.24	0.317	0.403
Cc1c2c(nn1C)CSCc1cc(n(C)n1)CSc1cc(c3ccccc3c1)OCCCc1c(C(=O)O)n(C)c3c-2c(Cl)ccc13 [AZD5991] + CCN(CCO)CCCOc1ccc2c(Nc3cc(CC(=O)Nc4cccc(F)c4)[nH]n3)ncnc2c1 [AZD2811] (first compound max 1 µM, 7x7, partner max 1 µM)	0.272	0.994	0.314	0.699	1	0.292	0.949	0.689	0.639	0.245	0.342	0.371
Cc1cc2ncnn2cc1Nc1ncc2c(n1)n(C1CCOCC1)c(=O)n2C [AZD7648] + C[C@@H]1COCCN1C2=NC(=NC(=C2)C3(CC3)[S@](=N)(=O)C)C4=C5C=CNC5=NC=C4 [AZD6738] (first compound max 10 µM, 7x7, partner max 10 µM)	0.533	0.967	0.251	0.292	0.67	0.316	0.789	0.493	0.988	0.5	0.435	0.853
Cc1cc2ncnn2cc1Nc1ncc2c(n1)n(C1CCOCC1)c(=O)n2C [AZD7648] + CN(C)CCCOc1ccc(-c2ccc3ncc4c(c3c2)n(C2CCOCC2)c(=O)n4C)cn1 [AZD0156] (first compound max 10 µM, 7x7, partner max 1 µM)	0.428	0.566	0.147	0.374	0.323	0.3	0.657	0.231	0.496	0.297	0.277	0.242
CN(CCO)CC[C@H](CSc1ccccc1)Nc1ccc(S(=O)(=O)NC(=O)c2ccc(N3CCC([C@@H](O)c4ccccc4-c4ccc(Cl)cc4)CC3)cc2)cc1S(=O)(=O)C(F)(F)F [AZD4320] + Cc1cc2ncnn2cc1Nc1ncc2c(n1)n(C1CCOCC1)c(=O)n2C [AZD7648] (first compound max 1 µM, 7x7, partner max 10 µM)	0.447	0.858	0.617	0.226	0.966	0.265	0.982	0.891	0.923	0.182	0.351	0.282
CN(C)CCCOc1ccc(-c2ccc3ncc4c(c3c2)n(C2CCOCC2)c(=O)n4C)cn1 [AZD0156] + C=CCn1c(=O)c2cnc(Nc3ccc(N4CCN(C)CC4)cc3)nc2n1-c1cccc(C(C)(C)O)n1 [AZD1775] (first compound max 1 µM, partner max 1 µM)	0.439	0.912	0.646	0.353	0.357	0.464	0.823	0.631	0.996	0.456	0.316	0.6
CCN(CCO)CCCOc1ccc2c(Nc3cc(CC(=O)Nc4cccc(F)c4)[nH]n3)ncnc2c1 [AZD2811] + C=CCn1c(=O)c2cnc(Nc3ccc(N4CCN(C)CC4)cc3)nc2n1-c1cccc(C(C)(C)O)n1 [AZD1775] (first compound max 1 µM, partner max 1 µM)	0.436	0.917	0.568	0.239	0.436	0.518	0.857	0.646	1	0.392	0.333	0.623
CCc1c2c(nc3ccc(O)cc13)-c1cc3c(c(=O)n1C2)COC(=O)[C@]3(O)CC [SN-38] + CN(C)CCCOc1ccc(-c2ccc3ncc4c(c3c2)n(C2CCOCC2)c(=O)n4C)cn1 [AZD0156] (first compound max 0.3 µM, 7x7, partner max 1 µM)	0.914	0.979	0.322	0.174	0.886	0.689	0.937	0.606	0.954	0.526	0.893	0.662
Cc1c2c(nn1C)CSCc1cc(n(C)n1)CSc1cc(c3ccccc3c1)OCCCc1c(C(=O)O)n(C)c3c-2c(Cl)ccc13 [AZD5991] + C1CN(CCC1(C(=O)N[C@@H](CCO)C2=CC=C(C=C2)Cl)N)C3=NC=NC4=C3C=CN4 [Capivasertib] (first compound max 1 µM, 7x7, partner max 3 µM)	0.302	0.99	0.322	0.67	1	0.298	0.454	0.402	0.367	0.314	0.289	0.252
COc1cccc2c1C(=O)c1c(O)c3c(c(O)c1C2=O)C[C@@](O)(C(=O)CO)C[C@@H]3O[C@H]1C[C@H](N)[C@H](O)[C@H](C)O1 [Doxorubicin] + Cc1cc2ncnn2cc1Nc1ncc2c(n1)n(C1CCOCC1)c(=O)n2C [AZD7648] (first compound max 1 µM, 7x7, partner max 10 µM)	0.82	0.995	0.732	0.368	0.365	0.29	0.975	0.547	0.943	0.72	0.715	0.518
